Legend:
[1] = molecular target: Electrophorus electricus AChE (eeAChE) (Electrophorus electricus, UniProt O42275); test: biochemical; format: biochemical; conditions: pH 8, 37 °C, triplicate
equine serum BuChE = equine serum BuChE (Equus caballus, UniProt P81908); test: biochemical; conditions: pH 8, 37 °C, triplicate
equine serum BuChE, sequence (P81908 whole entry): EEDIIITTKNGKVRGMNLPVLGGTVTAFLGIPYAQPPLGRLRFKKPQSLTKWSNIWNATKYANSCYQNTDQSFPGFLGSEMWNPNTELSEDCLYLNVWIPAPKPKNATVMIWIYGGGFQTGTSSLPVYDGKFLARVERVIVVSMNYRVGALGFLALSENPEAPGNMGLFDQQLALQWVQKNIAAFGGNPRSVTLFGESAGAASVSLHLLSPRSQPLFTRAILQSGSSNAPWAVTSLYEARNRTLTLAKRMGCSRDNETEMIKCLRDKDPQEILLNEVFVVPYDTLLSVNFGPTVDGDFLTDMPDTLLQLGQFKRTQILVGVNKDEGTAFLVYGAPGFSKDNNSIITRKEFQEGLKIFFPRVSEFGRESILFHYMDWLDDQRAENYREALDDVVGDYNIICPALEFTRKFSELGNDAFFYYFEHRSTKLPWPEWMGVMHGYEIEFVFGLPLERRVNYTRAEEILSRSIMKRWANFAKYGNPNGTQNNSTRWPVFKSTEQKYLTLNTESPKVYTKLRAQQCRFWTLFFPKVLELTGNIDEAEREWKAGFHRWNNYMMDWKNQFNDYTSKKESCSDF

Electrophorus electricus AChE (eeAChE), sequence (O42275 24-633): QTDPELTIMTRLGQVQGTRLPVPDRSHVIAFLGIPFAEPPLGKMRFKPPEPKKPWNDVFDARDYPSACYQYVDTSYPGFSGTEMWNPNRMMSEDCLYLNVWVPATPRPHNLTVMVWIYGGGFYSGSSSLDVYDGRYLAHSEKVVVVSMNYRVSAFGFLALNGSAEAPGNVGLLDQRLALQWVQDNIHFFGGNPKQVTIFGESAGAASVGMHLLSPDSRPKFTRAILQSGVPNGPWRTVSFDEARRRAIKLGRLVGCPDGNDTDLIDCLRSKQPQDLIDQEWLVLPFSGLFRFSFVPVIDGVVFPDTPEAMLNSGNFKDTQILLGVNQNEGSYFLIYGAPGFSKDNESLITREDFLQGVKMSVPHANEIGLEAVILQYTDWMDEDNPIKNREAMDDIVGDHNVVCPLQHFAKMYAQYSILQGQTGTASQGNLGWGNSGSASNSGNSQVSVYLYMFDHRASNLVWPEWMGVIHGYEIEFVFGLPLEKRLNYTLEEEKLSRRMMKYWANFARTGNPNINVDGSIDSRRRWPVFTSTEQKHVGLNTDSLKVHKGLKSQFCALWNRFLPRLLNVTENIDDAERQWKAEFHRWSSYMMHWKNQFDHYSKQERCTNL

Row | SMILES | IC50 [1] | IC50 (equine serum BuChE) | AChE IC50 [1]
1 | Cn1nc(Cl)c2c3sc(N)nc3ccc21 [5e, 8-Chloro-6-methyl-6H-thiazolo[5,4-e]indazol-2-amine] | > 50 µM | > 50 µM | 
2 | CCn1ncc2c3sc(NC(=O)CCl)nc3ccc21 [6b, 2-Chloro-N-(6-ethyl-6H-thiazolo[5,4-e]indazol-2-yl)acetamide] | 13.2 ± 2.71 µM | > 50 µM | 
3 | CCn1ncc2c3sc(NC(=O)CN=[N+]=[N-])nc3ccc21 [7b, 2-Azido-N-(6-ethyl-6H-thiazolo[5,4-e]indazol-2-yl)acetamide] | 0.54 ± 0.11 µM | > 50 µM | 
4 | Cn1ncc2c3sc(NC(=O)CN=[N+]=[N-])nc3ccc21 [7a, 2-Azido-N-(6-methyl-6H-thiazolo[5,4-e]indazol-2-yl)acetamide] | > 50 µM | > 50 µM | 
5 | Cn1ncc2c3sc(NC(=O)Cn4c5ccccc5c5ccccc54)nc3ccc21 [TI58a, 2-(9H-carbazol-9-yl)-N-(6-methyl-6H-thiazolo[5,4-e]indazol-2-yl)acetamide] | > 50 µM | > 50 µM | 
6 | Cn1nc(Cl)c2c3sc(NC(=O)Cn4cc(-c5cc(C(F)(F)F)cc(C(F)(F)F)c5)nn4)nc3ccc21 [TI45c, 2-(4-(3,5-bis(Trifluoromethyl)phenyl)-1H-1,2,3-triazol-1-yl)-N-(8-chloro-6-methyl-6H-thiazolo[5,4-e]indazol-2-yl)acetamide] | > 50 µM | > 50 µM | 
7 | CCn1ncc2ccc3nc(N)sc3c21 [5d, 1-Ethyl-1H-thiazolo[4,5-g]indazol-7-amine] | > 50 µM | > 50 µM | 
8 | CCn1ncc2c3sc(NC(=O)Cn4cc(-c5cc(C(F)(F)F)cc(C(F)(F)F)c5)nn4)nc3ccc21 [TI45b, 2-(4-(3,5-bis(Trifluoromethyl)phenyl)-1H-1,2,3-triazol-1-yl)-N-(6-ethyl-6H-thiazolo[5,4-e]indazol-2-yl)acetamide] | 0.071 ± 0.014 µM | > 50 µM | 
9 | Cn1ncc2c3sc(NC(=O)CCl)nc3ccc21 [6a, 2-Chloro-N-(6-methyl-6H-thiazolo[5,4-e]indazol-2-yl)acetamide] | 14.3 ± 2.62 µM | > 50 µM | 
10 | CCn1ncc2c3sc(NC(=O)Cn4c5ccccc5c5ccccc54)nc3ccc21 [TI58b, 2-(9H-carbazol-9-yl)-N-(6-ethyl-6H-thiazolo[5,4-e]indazol-2-yl)acetamide] | > 50 µM | > 50 µM | did not experimentally show any activity against AChE
11 | CCn1ncc2c3sc(N)nc3ccc21 [5b, 6-Ethyl-6H-thiazolo[5,4-e]indazol-2-amine] | > 50 µM | > 50 µM | 
12 | Cn1nc(Cl)c2c3sc(NC(=O)CCl)nc3ccc21 [6c, 2-Chloro-N-(8-chloro-6-methyl-6H-thiazolo[5,4-e]indazol-2-yl)acetamide] | > 25 µM | > 50 µM | 
13 | Cn1nc(Cl)c2c3sc(NC(=O)Cn4c5ccccc5c5ccccc54)nc3ccc21 [TI58c, 2-(9H-carbazol-9-yl)-N-(8-chloro-6-methyl-6H-thiazolo[5,4-e]indazol-2-yl)acetamide] | > 50 µM | > 50 µM | 
14 | Cn1ncc2ccc3nc(N)sc3c21 [5c, 1-Methyl-1H-thiazolo[4,5-g]indazol-7-amine] | > 50 µM | > 50 µM | 
15 | Cn1ncc2c3sc(NC(=O)Cn4cc(-c5cc(C(F)(F)F)cc(C(F)(F)F)c5)nn4)nc3ccc21 [TI45a, 2-(4-(3,5-bis(Trifluoromethyl)phenyl)-1H-1,2,3-triazol-1-yl)-N-(6-methyl-6H-thiazolo[5,4-e]indazol-2-yl)acetamide] | > 50 µM | > 50 µM | 
16 | Cn1ncc2c3sc(N)nc3ccc21 [5a, 6-Methyl-6H-thiazolo[5,4-e]indazol-2-amine] | > 50 µM | > 50 µM | 
17 | Cn1nc(Cl)c2c3sc(NC(=O)CN=[N+]=[N-])nc3ccc21 [7c, 2-Azido-N-(8-chloro-6-methyl-6H-thiazolo[5,4-e]indazol-2-yl)acetamide] | 2.26 ± 0.09 µM | > 50 µM | 
